Patent publication US9233964B2, “Sulfamide piperazine derivatives as protein tyrosine kinase inhibitors and pharmaceutical use therof” (LEO PHARMA A/S, priority 2011, dated 2016)
pEC50: −log10 of the molar value.

What was measured:
Type in all cases: biochemical
JAK2 = molecular target: T1, JAK2 (Homo sapiens, UniProt O60674); test: JAK kinase assay (HTRF, phosphorylation of synthetic peptide), JAK2; conditions: catalytic domain, ATP at Km (4 μM); read-out: JAK2 kinase inhibitory activity (EC50)
T1 construct: All four purified enzymes contain only the catalytic domain; His (N); purchased Carna Biosciences, Inc; host or cells: baculovirus expression system
Summary of the method: (§1)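 Catalytic-domain human JAK1 (GST-tagged, aa 850-1154) or His-tagged JAK2, baculovirus-expressed, phosphorylated 1 µM biotinylated TK peptide at Km ATP (JAK1 7 µM, 10 mM MgCl2, 50 nM SEB; JAK2 4 µM, 5 mM MgCl2) in pH 7.0 Hepes, 20-30 min RT. EDTA stop; overnight streptavidin-XL665/cryptate HTRF read.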

JAK1 = molecular target: T2, JAK1 (Homo sapiens, UniProt P23458); test: JAK kinase assay (HTRF, phosphorylation of synthetic peptide), JAK1; conditions: catalytic domain, ATP at Km (7 μM); read-out: JAK1 kinase inhibitory activity (EC50)
T2 construct: JAK1 (aa 850-1154) and TYK2 (aa 871-1187) are expressed with an N-terminally fused GST-tag; GST (N); purchased Carna Biosciences, Inc; host or cells: baculovirus expression system
Summary of the method: as §1

JAK3 = molecular target: T3, JAK3 (Homo sapiens, UniProt P52333); test: JAK kinase assay (HTRF, phosphorylation of synthetic peptide), JAK3; conditions: catalytic domain, ATP at Km (2 μM); read-out: JAK3 kinase inhibitory activity (EC50)
T3 construct: All four purified enzymes contain only the catalytic domain; His (N); purchased Carna Biosciences, Inc; host or cells: baculovirus expression system

TYK2 = molecular target: T4, TYK2 (Homo sapiens, UniProt P29597); test: JAK kinase assay (HTRF, phosphorylation of synthetic peptide), TYK2; conditions: catalytic domain, ATP at Km (13 μM); read-out: TYK2 kinase inhibitory activity (EC50)
T4 construct: JAK1 (aa 850-1154) and TYK2 (aa 871-1187) are expressed with an N-terminally fused GST-tag; GST (N); purchased Carna Biosciences, Inc; host or cells: baculovirus expression system
T4 sequence (P29597 871-1187): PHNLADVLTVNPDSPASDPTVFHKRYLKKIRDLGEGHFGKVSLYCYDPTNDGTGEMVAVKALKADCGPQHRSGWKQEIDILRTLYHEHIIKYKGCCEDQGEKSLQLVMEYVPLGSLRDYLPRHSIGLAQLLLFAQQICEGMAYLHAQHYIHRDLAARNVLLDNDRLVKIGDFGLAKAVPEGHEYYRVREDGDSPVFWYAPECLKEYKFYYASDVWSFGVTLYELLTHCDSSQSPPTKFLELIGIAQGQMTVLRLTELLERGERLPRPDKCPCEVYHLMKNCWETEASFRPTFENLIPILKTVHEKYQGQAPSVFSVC
Summary of the method: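 1 µM biotinylated TK peptide at Km ATP in pH 7.0 Hepes, 20-30 min RT. EDTA stop; overnight streptavidin-XL665/cryptate HTRF read.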

T1 sequence (O60674 849-1124 limits assumed): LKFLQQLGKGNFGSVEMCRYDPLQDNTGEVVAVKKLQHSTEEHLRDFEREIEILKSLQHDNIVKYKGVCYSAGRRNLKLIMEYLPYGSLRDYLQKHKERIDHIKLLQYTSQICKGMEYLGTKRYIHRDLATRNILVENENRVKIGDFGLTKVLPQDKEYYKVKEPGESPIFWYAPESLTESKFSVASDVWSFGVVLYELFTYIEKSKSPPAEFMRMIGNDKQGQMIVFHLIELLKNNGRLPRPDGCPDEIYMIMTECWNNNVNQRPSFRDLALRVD
T3 sequence (P52333 822-1111 limits assumed): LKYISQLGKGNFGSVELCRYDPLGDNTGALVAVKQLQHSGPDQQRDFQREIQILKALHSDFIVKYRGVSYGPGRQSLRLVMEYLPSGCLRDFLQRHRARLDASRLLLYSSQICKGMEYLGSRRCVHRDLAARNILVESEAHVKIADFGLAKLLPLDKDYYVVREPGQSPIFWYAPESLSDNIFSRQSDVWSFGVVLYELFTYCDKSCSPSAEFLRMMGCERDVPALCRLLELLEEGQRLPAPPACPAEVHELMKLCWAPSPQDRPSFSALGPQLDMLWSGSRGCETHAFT
T2 sequence (P23458 850-1154): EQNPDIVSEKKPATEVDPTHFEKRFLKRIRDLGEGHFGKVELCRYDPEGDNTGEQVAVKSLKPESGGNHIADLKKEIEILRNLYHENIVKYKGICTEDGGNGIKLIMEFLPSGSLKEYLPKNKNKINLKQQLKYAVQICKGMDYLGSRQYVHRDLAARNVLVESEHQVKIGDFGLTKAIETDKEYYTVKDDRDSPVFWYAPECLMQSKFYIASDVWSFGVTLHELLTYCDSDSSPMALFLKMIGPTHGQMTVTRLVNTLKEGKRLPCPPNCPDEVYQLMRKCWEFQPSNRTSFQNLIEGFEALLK

SMILES: COc1ccc(CCN(C)S(=O)(=O)N2CCN(c3ncnc4[nH]ccc34)CC23CC3)cc1OC [Example 51, 7-(7H-Pyrrolo[2,3-d]pyrimidin-4-yl)-4,7-diaza-spiro[2.5]octane-4-sulfonic acid [2-(3,4-dimethoxy-phenyl)-ethyl]-methyl-amide]
- pEC50 (JAK2): > 7.00
- pEC50 (JAK1): > 7.00
- pEC50 (JAK3): > 7.00
- pEC50 (TYK2): 6.30 to 7.00

SMILES: CN(CC1CCN(C(=O)CCO)C1)S(=O)(=O)N1CCN(c2ncnc3[nH]ccc23)CC12CC2 (centres unmarked) [Example 123, N-[[1-(3-hydroxypropanoyl)pyrrolidin-3-yl]methyl]-N-methyl-5-(7H-pyrrolo[2,3-d]pyrimidin-4-yl)-5,8-diazaspiro[2.5]octane-8-sulfonamide]
- pEC50 (JAK2): > 7.00
- pEC50 (JAK1): > 7.00
- pEC50 (JAK3): 6.30 to 7.00
- pEC50 (TYK2): < 6.30

SMILES: O=S(=O)(N(CCO)C1CCC1)N1CCN(c2ncnc3[nH]ccc23)CC12CC2 [Example 101, N-cyclobutyl-N-(2-hydroxyethyl)-5-(7H-pyrrolo[2,3-d]pyrimidin-4-yl)-5,8-diazaspiro[2.5]octane-8-sulfonamide]
- pEC50 (JAK2): > 7.00
- pEC50 (JAK1): > 7.00
- pEC50 (JAK3): > 7.00
- pEC50 (TYK2): > 7.00

SMILES: O=S(=O)(N(CCc1ccccc1)CC1CC1)N1CCN(c2ncnc3[nH]ccc23)CC12CC2 [Example 2, 7-(7H-Pyrrolo[2,3-d]pyrimidin-4-yl)-4,7-diaza-spiro[2.5]octane-4-sulfonic acid cyclopropylmethyl-phenethyl-amide]
- pEC50 (JAK2): > 7.00
- pEC50 (JAK1): > 7.00
- pEC50 (JAK3): 6.30 to 7.00
- pEC50 (TYK2): < 6.30

SMILES: O=S(=O)(NC1CCC1)N1CCN(c2ncnc3[nH]ccc23)CC12CC2 [Int 30]
- pEC50 (JAK2): > 7.00
- pEC50 (JAK1): > 7.00
- pEC50 (JAK3): 6.30 to 7.00
- pEC50 (TYK2): < 6.30

SMILES: CN(C(=O)CC1CCS(=O)(=O)CC1)S(=O)(=O)N1CCN(c2ncnc3[nH]ccc23)CC12CC2 [Example 136, 2-(1,1-dioxothian-4-yl)-N-methyl-N-[[5-(7H-pyrrolo[2,3-d]pyrimidin-4-yl)-5,8-diazaspiro[2.5]octan-8-yl]sulfonyl]acetamide]
- pEC50 (JAK2): > 7.00
- pEC50 (JAK1): > 7.00
- pEC50 (JAK3): 6.30 to 7.00
- pEC50 (TYK2): < 6.30

SMILES: O=S1(=O)CCC(CNS(=O)(=O)N2CCN(c3ncnc4[nH]ccc34)CC23CC3)CC1 [Int 38]
- pEC50 (JAK2): > 7.00
- pEC50 (JAK1): > 7.00
- pEC50 (JAK3): > 7.00
- pEC50 (TYK2): < 6.30

SMILES: CN(C(=O)C1CCS(=O)(=O)CC1)S(=O)(=O)N1CCN(c2ncnc3[nH]ccc23)CC12CC2 [Example 139, N-methyl-1,1-dioxo-N-[[5-(7H-pyrrolo[2,3-d]pyrimidin-4-yl)-5,8-diazaspiro[2.5]octan-8-yl]sulfonyl]thiane-4-carboxamide]
- pEC50 (JAK2): > 7.00
- pEC50 (JAK1): > 7.00
- pEC50 (JAK3): > 7.00
- pEC50 (TYK2): > 7.00

SMILES: CCOC(=O)CN(CCc1ccccc1)S(=O)(=O)N1CCN(c2ncnc3[nH]ccc23)CC12CC2 [Example 46, {Phenethyl-[7-(7H-pyrrolo[2,3-d]pyrimidin-4-yl)-4,7-diaza-spiro[2.5]octane-4-sulfonyl]-amino}-acetic acid ethyl ester]
- pEC50 (JAK2): > 7.00
- pEC50 (JAK1): > 7.00
- pEC50 (JAK3): 6.30 to 7.00
- pEC50 (TYK2): < 6.30

SMILES: CN(C[C@@H]1CC(F)(F)CN1C(=O)CCC#N)S(=O)(=O)N1CCN(c2ncnc3[nH]ccc23)CC12CC2 [Example 156, N-[[(2S)-1-(3-cyanopropanoyl)-4,4-difluoro-pyrrolidin-2-yl]methyl]-N-methyl-5-(7H-pyrrolo[2,3-d]pyrimidin-4-yl)-5,8-diazaspiro[2.5]octane-8-sulfonamide]
- pEC50 (JAK2): > 7.00
- pEC50 (JAK1): > 7.00
- pEC50 (JAK3): > 7.00
- pEC50 (TYK2): > 7.00

SMILES: CN(C1CCC1)S(=O)(=O)N1CCN(c2ncnc3[nH]ccc23)CC12CC2 [Example 98, N-cyclobutyl-N-methyl-5-(7H-pyrrolo[2,3-d]pyrimidin-4-yl)-5,8-diazaspiro[2.5]octane-8-sulfonamide]
- pEC50 (JAK2): > 7.00
- pEC50 (JAK1): > 7.00
- pEC50 (JAK3): 6.30 to 7.00
- pEC50 (TYK2): 6.30 to 7.00

SMILES: CN(Cc1ccc(C#N)cc1)S(=O)(=O)N1CCN(c2ncnc3[nH]ccc23)CC12CC2 [Example 37, 7-(7H-Pyrrolo[2,3-d]pyrimidin-4-yl)-4,7-diaza-spiro[2.5]octane-4-sulfonic acid (4-cyano-benzyl)-methyl-amide]
- pEC50 (JAK2): > 7.00
- pEC50 (JAK1): > 7.00
- pEC50 (JAK3): > 7.00
- pEC50 (TYK2): 6.30 to 7.00

SMILES: O=S1(=O)CCC(CNS(=O)(=O)N2CCN(c3ncnc4[nH]ccc34)CC23CC3)C1 (centres unmarked) [Int 37]
- pEC50 (JAK2): > 7.00
- pEC50 (JAK1): > 7.00
- pEC50 (JAK3): > 7.00
- pEC50 (TYK2): < 6.30

SMILES: CN(C[C@H]1CCCN1C(=O)C(O)CO)S(=O)(=O)N1CCN(c2ncnc3[nH]ccc23)CC12CC2 (stereo partly drawn) [Example 186, N-[[(2R)-1-(2,3-dihydroxypropanoyl)pyrrolidin-2-yl]methyl]-N-methyl-5-(7H-pyrrolo[2,3-d]pyrimidin-4-yl)-5,8-diazaspiro[2.5]octane-8-sulfonamide]
- pEC50 (JAK2): > 7.00
- pEC50 (JAK1): > 7.00
- pEC50 (JAK3): > 7.00
- pEC50 (TYK2): > 7.00

SMILES: O=S(=O)(N(CCCc1ccccc1)CCc1ccccc1)N1CCN(c2ncnc3[nH]ccc23)CC12CC2 [Example 9, 7-(7H-Pyrrolo[2,3-d]pyrimidin-4-yl)-4,7-diaza-spiro[2.5]octane-4-sulfonic acid phenethyl-(3-phenyl-propyl)-amide]
- pEC50 (JAK2): 6.30 to 7.00
- pEC50 (JAK1): < 6.30
- pEC50 (JAK3): < 6.30
- pEC50 (TYK2): < 6.30

SMILES: O=S(=O)(N(CCO)CCOc1ccccc1)N1CCN(c2ncnc3[nH]ccc23)CC12CC2 [Example 111, N-(2-hydroxyethyl)-N-(2-phenoxyethyl)-5-(7H-pyrrolo[2,3-d]pyrimidin-4-yl)-5,8-diazaspiro[2.5]octane-8-sulfonamide]
- pEC50 (JAK2): > 7.00
- pEC50 (JAK1): 6.30 to 7.00
- pEC50 (JAK3): 6.30 to 7.00
- pEC50 (TYK2): < 6.30

SMILES: O=S(=O)(NCC1CCC(F)(F)CC1)N1CCN(c2ncnc3[nH]ccc23)CC12CC2 [Example 148, N-[(4,4-difluorocyclohexyl)methyl]-5-(7H-pyrrolo[2,3-d]pyrimidin-4-yl)-5,8-diazaspiro[2.5]octane-8-sulfonamide]
- pEC50 (JAK2): > 7.00
- pEC50 (JAK1): > 7.00
- pEC50 (JAK3): > 7.00
- pEC50 (TYK2): 6.30 to 7.00

SMILES: CN(CC(=O)c1ccccc1)S(=O)(=O)N1CCN(c2ncnc3[nH]ccc23)CC12CC2 [Example 12, 7-(7H-Pyrrolo[2,3-d]pyrimidin-4-yl)-4,7-diaza-spiro[2.5]octane-4-sulfonic acid methyl-(2-oxo-2-phenyl-ethyl)-amide]
- pEC50 (JAK2): > 7.00
- pEC50 (JAK1): > 7.00
- pEC50 (JAK3): 6.30 to 7.00
- pEC50 (TYK2): < 6.30

SMILES: COCCN(CCc1ccccc1)S(=O)(=O)N1CCN(c2ncnc3[nH]ccc23)CC12CC2 [Example 22, 7-(7H-Pyrrolo[2,3-d]pyrimidin-4-yl)-4,7-diaza-spiro[2.5]octane-4-sulfonic acid (2-methoxy-ethyl)-phenethyl-amide]
- pEC50 (JAK2): > 7.00
- pEC50 (JAK1): > 7.00
- pEC50 (JAK3): > 7.00
- pEC50 (TYK2): 6.30 to 7.00

SMILES: CN(CC1CCCC1)S(=O)(=O)N1CCN(c2ncnc3[nH]ccc23)CC12CC2 [Example 73, N-(cyclopentylmethyl)-N-methyl-5-(7H-pyrrolo[2,3-d]pyrimidin-4-yl)-5,8-diazaspiro[2.5]octane-8-sulfonamide]
- pEC50 (JAK2): > 7.00
- pEC50 (JAK1): > 7.00
- pEC50 (JAK3): > 7.00
- pEC50 (TYK2): > 7.00

SMILES: CN(Cc1ccc(S(C)(=O)=O)cc1)S(=O)(=O)N1CCN(c2ncnc3[nH]ccc23)CC12CC2 [Example 83, N-methyl-N-[(4-methylsulfonylphenyl)methyl]-5-(7H-pyrrolo[2,3-d]pyrimidin-4-yl)-5,8-diazaspiro[2.5]octane-8-sulfonamide]
- pEC50 (JAK2): > 7.00
- pEC50 (JAK1): > 7.00
- pEC50 (JAK3): > 7.00
- pEC50 (TYK2): > 7.00

SMILES: CN(CCn1cccn1)S(=O)(=O)N1CCN(c2ncnc3[nH]ccc23)CC12CC2 [Example 66, N-methyl-N-(2-pyrazol-1-ylethyl)-5-(7H-pyrrolo[2,3-d]pyrimidin-4-yl)-5,8-diazaspiro[2.5]octane-8-sulfonamide]
- pEC50 (JAK2): > 7.00
- pEC50 (JAK1): > 7.00
- pEC50 (JAK3): > 7.00
- pEC50 (TYK2): 6.30 to 7.00

SMILES: CN(Cc1ccc(OC(F)(F)F)cc1)S(=O)(=O)N1CCN(c2ncnc3[nH]ccc23)CC12CC2 [Example 80, N-methyl-5-(7H-pyrrolo[2,3-d]pyrimidin-4-yl)-N-[[4-(trifluoromethoxy)phenyl]methyl]-5,8-diazaspiro[2.5]octane-8-sulfonamide]
- pEC50 (JAK2): 6.30 to 7.00
- pEC50 (JAK1): 6.30 to 7.00
- pEC50 (JAK3): < 6.30
- pEC50 (TYK2): < 6.30
